Experimental findings from ChEMBL document CHEMBL1201862, “PubChem BioAssay data set” (2004) are described below.

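Method: 48-hour compound exposure of cells in 96-well plates, five concentrations, linear interpolation of endpoints. GI50: concentration for 50% inhibition of growth.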 The source made the active and inactive calls. Rule as the data show it: active = GI50 up to about 1.1 µM and inactive = higher.

Some test systems named below: HT-29; SN12C; U-251; SF-295; TK-10; OVCAR-5; SF-268; NCI-H226; HOP-92; MOLT-4; M14; RPMI-8226; ACHN; NCI-H522; T47D; HL-60; UACC-62; HCT-15; RXF 393; KM12.
What all share (experiment): DTP human tumour cell line panel, 48 h

Broadly, the GI50 is the concentration giving 50% growth inhibition. Take `Cc1ccc([N+](=O)[O-])c2c(NCCC[N+](C)(C)[O-])c3ccccc3nc12`: the GI50 was 1.48 µM (inactive) with HT-29; 2.19 µM (inactive) in the experiment on SN12C; 1.32 µM (inactive) in the experiment with U-251; 3.43 µM (inactive) with SF-295; 11.6 µM (inactive) in the experiment with TK-10; 3.41 µM (inactive) with OVCAR-5. Further, the GI50 with SF-268 is 2.47 µM (inactive); in the experiment with NCI-H226, 2.24 µM (inactive); with HOP-92, 0.962 µM (active); in the experiment on MOLT-4, 0.33 µM (active); in the experiment with M14 it was 2.34 µM (inactive); in the experiment on RPMI-8226, 2.74 µM (inactive). The GI50 in the experiment with ACHN was 5.57 µM (inactive); in the experiment on NCI-H522, 0.204 µM (active); with T47D it was 0.916 µM (active); in the experiment with HL-60 it was 4 µM (inactive); with UACC-62 it was 1.64 µM (inactive); in the experiment with HCT-15, 4.99 µM. The GI50 in the experiment with RXF 393 was 1.35 µM (inactive); in the experiment with KM12, 1.79 µM (inactive).

Turning to `OCc1ccn2c1[C@@H](O)CC2`, the GI50 with HT-29, in the experiment with SN12C, in the experiment on U-251, in the experiment on SF-295, with TK-10 and in the experiment on OVCAR-5 was > 100 µM (inactive) in each case. In addition, the GI50 in the experiment on SF-268, with NCI-H226, in the experiment with HOP-92, in the experiment on MOLT-4, in the experiment on M14 and in the experiment on RPMI-8226 was > 100 µM (inactive) each time. Also, the GI50 in the experiment on ACHN was > 100 µM (inactive); in the experiment on NCI-H522, 1.55 µM (inactive); with T47D, > 100 µM (inactive); in the experiment on HL-60, > 100 µM (inactive); in the experiment with UACC-62 it was > 100 µM (inactive); with HCT-15, above 100 µM. In addition, the GI50 in the experiment on RXF 393 and in the experiment with KM12 was > 100 µM (inactive) each time.

As for `CO/N=C(/C(=O)OC)c1ccccc1COc1ccccc1C(F)(F)F`, the GI50 in the experiment with HT-29 was 26.1 µM (inactive); in the experiment with SN12C, 61.8 µM (inactive); with U-251, 31.6 µM (inactive); with SF-295, 10.7 µM (inactive); in the experiment with TK-10, 54.5 µM (inactive); with OVCAR-5, > 100 µM (inactive). Further, the GI50 with SF-268 is 32.6 µM (inactive); with NCI-H226 it was 68.4 µM (inactive); with HOP-92 it was 30.2 µM (inactive); in the experiment on MOLT-4, 15.1 µM (inactive); in the experiment on M14, 26.9 µM (inactive); in the experiment with RPMI-8226 it was 14.4 µM (inactive). The GI50 is 83.6 µM (inactive) in the experiment on ACHN; 14.7 µM (inactive) in the experiment with NCI-H522; 25.2 µM (inactive) with T47D; 10.5 µM (inactive) in the experiment on HL-60; 26.3 µM (inactive) with UACC-62; 33.3 µM in the experiment on HCT-15. Also, the GI50 was > 100 µM (inactive) in the experiment on RXF 393 and 30.2 µM (inactive) in the experiment on KM12.

Take `CN(C)CC1CCCc2ccccc2C1=O` (stereo not given): the GI50 in the experiment with HT-29 is 1.82 µM (inactive); in the experiment with SN12C it was 7.4 µM (inactive); with U-251, 1.6 µM (inactive); in the experiment on SF-295, 17.3 µM (inactive); in the experiment with TK-10, 3.83 µM (inactive); in the experiment on OVCAR-5 it was 17.5 µM (inactive). In addition, the GI50 in the experiment with SF-268 is 2.21 µM (inactive); in the experiment on NCI-H226, 21.8 µM (inactive); in the experiment with HOP-92 it was 16 µM (inactive); with MOLT-4 it was 0.269 µM (active); in the experiment with M14, 1.85 µM (inactive); with RPMI-8226, 0.0267 µM (active). For the same compound, the GI50 with ACHN was 1.75 µM (inactive); with NCI-H522, 0.16 µM (active); in the experiment with T47D, 7.73 µM (inactive); in the experiment with HL-60, 2.66 µM (inactive); with UACC-62, 2.31 µM (inactive); in the experiment with HCT-15 it was 1.79 µM. Moreover, the GI50 in the experiment with RXF 393 was 6.55 µM (inactive); in the experiment on KM12 it was 1.98 µM (inactive).

For the compound `C[S+]([O-])c1cc(=O)c2ccccc2s1` (stereo not given), the GI50 in the experiment with HT-29 was 4.35 µM (inactive); in the experiment with SN12C, 5.79 µM (inactive); with U-251, 12.8 µM (inactive); in the experiment with SF-295 it was 17 µM (inactive); with TK-10, 6.68 µM (inactive); in the experiment on OVCAR-5, 9.42 µM (inactive). In addition, the GI50 with SF-268 was 10.2 µM (inactive); in the experiment with NCI-H226, 16.9 µM (inactive); in the experiment on HOP-92, 2.94 µM (inactive); in the experiment with MOLT-4, 2.05 µM (inactive); with M14 it was 1.67 µM (inactive); in the experiment with RPMI-8226, 2.9 µM (inactive). The GI50 is 1.91 µM (inactive) in the experiment with ACHN; 1.13 µM (inactive) in the experiment on NCI-H522; 2.52 µM (inactive) with T47D; 1.99 µM (inactive) with HL-60; 7.31 µM (inactive) in the experiment on UACC-62; 3.03 µM in the experiment on HCT-15. Further, the GI50 with RXF 393 is 2.94 µM (inactive); in the experiment with KM12, 12.6 µM (inactive).

Regarding `O=C(c1ccccc1)c1ccc(-n2c3ccccc3c3ccc4c(c32)C(=O)C=CC4=O)cc1`, the GI50 in the experiment on HT-29 was 2.82 µM (inactive); with SN12C, 9.08 µM (inactive); in the experiment on U-251, 14.7 µM (inactive); in the experiment on SF-295, 15.7 µM (inactive); in the experiment with TK-10, 12.7 µM (inactive); in the experiment on OVCAR-5, 18.7 µM (inactive). Further, the GI50 in the experiment with SF-268 is 10.7 µM (inactive); in the experiment on NCI-H226, 23.3 µM (inactive); in the experiment on HOP-92, 3.48 µM (inactive); in the experiment on MOLT-4, 1.75 µM (inactive); in the experiment on M14, 9.2 µM (inactive); in the experiment with RPMI-8226, 6.17 µM (inactive). The GI50 was 4.38 µM (inactive) in the experiment with ACHN; 3.43 µM (inactive) in the experiment on NCI-H522; 3.1 µM (inactive) in the experiment on T47D; 2.8 µM (inactive) in the experiment on HL-60; 13.1 µM (inactive) with UACC-62; 11.3 µM in the experiment on HCT-15. Besides, the GI50 in the experiment with RXF 393 was 5.24 µM (inactive); with KM12, 17.5 µM (inactive).

Consider `CN(C)CCCN1c2ccc3ccccc3c2Sc2cccc(Cl)c21`, for which the GI50 with HT-29 was 2.04 µM (inactive); in the experiment on SN12C, 6.19 µM (inactive); in the experiment on U-251 it was 2.18 µM (inactive); with SF-295 it was 3.91 µM (inactive); in the experiment on TK-10, 2.52 µM (inactive); in the experiment on OVCAR-5 it was 5.13 µM (inactive). Further, the GI50 in the experiment with SF-268 is 5.69 µM (inactive); in the experiment on NCI-H226 it was 7.11 µM (inactive); in the experiment with HOP-92 it was 1.51 µM (inactive); in the experiment with MOLT-4, 2.14 µM (inactive); in the experiment with M14, 1.89 µM (inactive); in the experiment with RPMI-8226, 1.78 µM (inactive). Moreover, the GI50 was 3.38 µM (inactive) in the experiment on ACHN; 2.61 µM (inactive) with NCI-H522; 2.46 µM (inactive) in the experiment on T47D; 1.63 µM (inactive) with HL-60; 2 µM (inactive) in the experiment with UACC-62; 4.33 µM with HCT-15. The values for the GI50 in the experiment with RXF 393 and in the experiment on KM12 were 3.82 µM (inactive) and 2.08 µM (inactive), respectively.
